According to article PMC3969379, “Neospora caninum Calcium-Dependent Protein Kinase 1 Is an Effective Drug Target for Neosporosis Therapy” (PLoS ONE, 2014):
pEC50, pIC50: −log10 of the molar value. Read-outs that look alike come from different tables or passages of the source.

Assays:
recombinant NcCDPK1 = recombinant NcCDPK1 (Neospora caninum, UniProt F0V9W9); assay: biochemical
Description: Protein kinase activity of recombinant NcCDPK1 and inhibition of its kinase phosphorylation properties by BKIs was measured in a non-radioactive assay using Kinase-Glo luciferase reagent (Promega, Madison, WI). This luminescence based assay measures kinase activity in the presence or absence of inhibitors by reporting changes in initial ATP concentration after NcCDPK1 phosphorylation of biotinylated Syntide-2 peptide substrate (Biotin-C6-[…]) (BioSyntide-2) (American Peptide Company, Inc. Sunnyvale, CA), [40]. […] The reaction was initiated by the addition of 10 μM ATP and incubated for 90 minutes at 30°C. Changes in initial ATP concentration was evaluated as a luminescence readout using a MicroBeta2 multi-label plate reader (Perkin Elmer, Waltham, MA).

T. gondii = conditions: cited from earlier work
N. caninum tachyzoites = assay: N. caninum-β-gal tachyzoite proliferation in HFF, 3 days; type: cell-based; conditions: Neospora caninum, read-out: EC50 N. caninum
Description: Transgenic N. caninum tachyzoites expressing beta-galactosidase under a constitutive promoter (N. caninum-β-gal) were grown in Vero cells and were separated from host cell components as previously described. Human foreskin fibroblasts (HFF) at 5×10^3 cells per well in phenol-red free culture medium were incubated at 37°C with 5% CO2 and were grown to confluence in a 96-well plate. […] Cultures were infected with N. caninum-β-gal tachyzoites (1×10^3 per well). After three days at 37°C/5% CO2, plates were centrifuged at 500 g, medium was removed, and cell cultures were lysed in PBS containing 0.05% Triton-X-100. After addition of 10 μL of 5 mM chlorophenol red-b-D-galactopyranoside (CPRG; Roche Diagnostics, Rotkreuz, Switzerland) dissolved in PBS, the absorption shift was measured at 570 nm wavelength at various time points on a VersaMax multiplate reader (Bucher Biotec, Basel, Switzerland). The activity, measured as the release of chlorophenol red over time, was proportional to the number of life parasites down to 50 per well as determined in pilot assays. EC50 values were calculated after the logit-log-transformation of relative growth and subsequent regression analysis by the corresponding software tool contained in the Excel software package (Microsoft, Seattle, WA).

malaria transmission = test system: malaria transmission; design: method as in PMID 24123773; conditions: cited from earlier work
[1] = cited from earlier work
[2] = test system: N. caninum tachyzoites in HFF; assay: Host cell invasion assay, BKI treatment pre- and post-infection (β-galactosidase); type: cell-based, Neospora caninum
Description: Control wells with equal volume of DMSO were also included per reaction plate. Two hours after initiating the experiment, the cells were washed. Selected untreated assay plates were treated with 1294 for 60 minutes after the initial wash with medium. All the assay plates were incubated for one hour before a final wash and reading the beta-galactosidase activity.

Cryptosporidium parvum = test system: Cryptosporidium parvum; design: method as in PMID 23878324; conditions: in vitro and in vivo; cited from earlier work
N. caninum = N. caninum infected Balb/c mice, cerebral parasite load by real time PCR; type: in vivo
[3] = concentration that inhibits protein kinase activity by 50%, 10 μM ATP, 40 μM BioSyntide-2, 3.3 nM enzyme, read-out: IC50 NcCDPK1
[4] = 72 h, concentration that inhibits cell growth by 50%, tachyzoites in HFF, 3 days

Chain of recombinant NcCDPK1 (F0V9W9 entry or part of it): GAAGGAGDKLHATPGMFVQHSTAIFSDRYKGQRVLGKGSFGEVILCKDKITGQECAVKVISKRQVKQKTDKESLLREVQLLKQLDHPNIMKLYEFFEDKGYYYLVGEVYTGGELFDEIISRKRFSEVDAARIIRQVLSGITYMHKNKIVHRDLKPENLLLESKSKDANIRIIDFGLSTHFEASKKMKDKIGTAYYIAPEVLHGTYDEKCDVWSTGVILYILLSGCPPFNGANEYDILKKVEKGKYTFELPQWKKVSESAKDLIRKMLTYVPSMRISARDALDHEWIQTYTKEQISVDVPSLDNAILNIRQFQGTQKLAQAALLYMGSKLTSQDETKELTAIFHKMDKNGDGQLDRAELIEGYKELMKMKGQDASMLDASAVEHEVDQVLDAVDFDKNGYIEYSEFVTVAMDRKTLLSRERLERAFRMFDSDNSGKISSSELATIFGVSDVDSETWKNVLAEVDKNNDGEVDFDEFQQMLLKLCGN

CC(C)(C)n1nc(-c2ccc3ccccc3c2)c2c(N)ncnc21 [11b]
pIC50 (recombinant NcCDPK1; [3]): 8.77 | pEC50 (T. gondii): 6.46 | pEC50 (N. caninum tachyzoites; [4]): 6.85

CCOc1ccc2cc(-c3nn(C4CCN(C)CC4)c4ncnc(N)c34)ccc2c1 [15h]
pIC50 (recombinant NcCDPK1; [3]): 8.85 | pEC50 (T. gondii): 7.30 | pEC50 (N. caninum tachyzoites; [4]): 7.26

CCOc1ccc2cc(-c3nn(C4CCN(CC)CC4)c4ncnc(N)c34)ccc2c1 [15i]
pIC50 (recombinant NcCDPK1; [3]): 8.64 | pEC50 (T. gondii): 7.05 | pEC50 (N. caninum tachyzoites; [4]): 7.00

CCOc1ccc2cc(-c3nn(CC4CCNCC4)c4ncnc(N)c34)ccc2c1 [15n]
pEC50 (T. gondii): 7.28 | pEC50 (N. caninum tachyzoites; [4]): 7.30

CCOc1ccc2cc(-c3nn(CC4CCNCC4)c4ncnc(N)c34)ccc2n1 [16n]
pIC50 (recombinant NcCDPK1; [3]): 8.77 | pEC50 (N. caninum tachyzoites; [4]): 7.31

CCOc1ccc2cc(-c3nn(CC4CCN(C)CC4)c4ncnc(N)c34)ccc2c1 [compound 1294]
malaria transmission blocking (malaria transmission): excellent malaria transmission blocking properties | pIC50 (recombinant NcCDPK1): 8.59 | pharmacokinetic data [1]: favorable absorption with low clearance | toxicity in mammalian cells and rodents ([1]; in vivo): low toxicity | beta-galactosidase activity (host cell invasion) ([2]; 5 μM added after the infection phase of 2 hours, p>0.2): no difference | beta-galactosidase activity (host cell invasion) ([2]; 5 μM added at 60, 90 and 115 minutes after initiation of infection): no significant difference | beta-galactosidase activity (host cell invasion) ([2]; 5 μM added at initiation of HFF infection, 2 hours, vs 1266 or DMSO, p<0.001): significant decrease | activity against Cryptosporidium parvum cell growth (Cryptosporidium parvum): profound in vitro and in vivo activity | pEC50 (T. gondii): 6.86 | cerebral parasite load vs placebo group (N. caninum; group B: 50 mg/kg oral daily from day 3 post infection for 5 days, P = 0.0139): tendency towards reduced parasite load | cerebral parasite load vs placebo group (N. caninum; group C: 50 mg/kg oral daily from day 3 post infection for 10 days, P = 0.0047): clearly the most effective | reduction of cerebral parasite burden compared to untreated control (N. caninum; oral 50 mg/kg for 5 days, established murine neosporosis): 10 fold | pEC50 (N. caninum tachyzoites; HFF-3, 72 h): 7.49

CCOc1ccc2cc(-c3nn(CC4CCOCC4)c4ncnc(N)c34)ccc2n1 [compound 1412]
pIC50 (recombinant NcCDPK1; [3]): 8.70 | pEC50 (N. caninum tachyzoites; [4]): 6.92
